Experimental data reported in patent US20240076615A1, “MODELS AND METHODS FOR RAPID SCREENING OF THE EFFICACY OF IMMUNOREGULATING DRUGS” (priority 2022, published 2024).

Test system: tumor cells and immune cells of a patient with ovarian cancer
Assay: IO-FIVE capsule tube test in mice, ovarian cancer patient (Example 3), CTG and FACS
Type: in vivo, human
Details: day 10; tumor sample after addition of autologous TIL cells
Excerpt: The following was collected for cell identification: a single cell suspension of tumor tissue samples of patients before purification, tumor cells after purification, enriched immune cells (containing CD3+T) eluted from the column, and a cell suspension in which tumor cells after purification and immune cells were mixed in a certain ratio (1.5:1 to 15:1), to yield a final cell count of 0.1 to 0.3 million cells. (Note that if the viability of immune cells eluted from the column was less than 20%, then downstream experiments and operations could not be performed, especially since activated immune cells were more likely to undergo activation-induced apoptosis). […]
According to the data analyzed in step of flow cytometry, the CD45− tumor cells and CD3+ T cells were mixed in a certain ratio (about 1.5:1-15:1). […]
3-21 days after administration (day 10 here), the mice were euthanized, and the PVDF tubes were removed. Cell viability was quantified by the CellTiter-Glo chemiluminescence method, and the relative ratio and basic phenotype of tumor cells and immune cells in PVDF tubes were detected by flow cytometry.
The results were analyzed by Flowjo software.

SMILES: NC(=O)c1cccc2cn(-c3ccc([C@@H]4CCCNC4)cc3)nc12 [PARP inhibitor, Niraparib]
- viability of total cells / overall tumor viability (CTG): neither PD1 antibody nor PARP inhibitor mono-therapy could inhibit
